# Measured values published in patent publication US11491132B2, “Methods for treating thrombocytopenia” (Enzychem Lifesciences Corporation, priority 2014, dated 2022).
# How the values were obtained:
# [1] = tested on: white blood cells and neutrophils; experiment: PLAG in combination with G-CSF in cyclophosphamide-treated mouse model; type: in vivo, mice; settings: addition of PLAG to G-CSF; levels vs untreated mice
# Excerpt: Mice receive cyclophosphamide (100 mpk, i.p.) for a period of ten days, with or without G-CSF (0.25 mpk, i.p.) or G-CSF (0.25 mpk, i.p.) plus PLAG (25 mpk, p.o.): […]
# [2] = molecular target: T1, STAT6 (Homo sapiens, UniProt P42226); experiment: Dephosphorylation of STAT6 in PLAG treated cells, western blot; type: cell-based; design: endogenous in cells; host or cells: U937, A549, Jurkat; settings: U937, Jurkat and A549 cells; PLAG 0.01 to 10 μg/ml; 15 min after 10 ng/ml IL-4
# T1 sequence (P42226 1-847): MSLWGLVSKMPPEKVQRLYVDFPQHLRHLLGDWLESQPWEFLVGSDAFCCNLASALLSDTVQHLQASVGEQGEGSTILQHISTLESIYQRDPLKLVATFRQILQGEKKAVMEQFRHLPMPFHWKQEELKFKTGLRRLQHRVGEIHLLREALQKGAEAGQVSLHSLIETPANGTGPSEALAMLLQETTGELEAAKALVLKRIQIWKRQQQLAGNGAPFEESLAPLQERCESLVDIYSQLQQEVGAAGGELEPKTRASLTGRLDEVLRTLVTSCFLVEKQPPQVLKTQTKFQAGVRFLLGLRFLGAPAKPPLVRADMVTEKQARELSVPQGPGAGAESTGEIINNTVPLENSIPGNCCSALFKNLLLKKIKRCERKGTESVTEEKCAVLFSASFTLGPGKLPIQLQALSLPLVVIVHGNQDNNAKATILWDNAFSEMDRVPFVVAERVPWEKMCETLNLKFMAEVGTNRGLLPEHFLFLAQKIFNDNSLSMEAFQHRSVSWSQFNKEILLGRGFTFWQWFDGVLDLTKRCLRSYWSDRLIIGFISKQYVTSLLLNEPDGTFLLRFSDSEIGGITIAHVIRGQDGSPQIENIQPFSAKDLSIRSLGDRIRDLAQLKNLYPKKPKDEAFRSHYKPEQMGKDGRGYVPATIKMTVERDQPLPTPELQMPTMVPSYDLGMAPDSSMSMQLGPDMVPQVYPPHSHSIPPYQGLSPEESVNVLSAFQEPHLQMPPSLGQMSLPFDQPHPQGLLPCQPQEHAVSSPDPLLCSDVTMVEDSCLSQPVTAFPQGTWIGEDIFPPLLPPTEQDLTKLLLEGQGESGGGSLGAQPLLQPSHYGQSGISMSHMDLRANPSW
# Experimental: Dephosphorylation of STAT6 is examined using anti-phosphorylated STAT6 in U937, A549, and Jurkat cell lysates treated with PLAG concentration from 0.01 to 10 μg/ml. Phosphorylation of STAT6 is induced by treatment with 10 ng/ml of IL-4. Dephosphorylation of STAT1 is examined in the U937 cell lysate treated with PLAG (0.01 to 10 μg/ml). Phosphorylation of STAT1 is induced by 10 ng of IFN-γ treatment. Dephosphorylation of STAT1 and STAT6 is examined at 15 min after stimulation with IFN-γ and IL-4 respectively, in the PLAG pretreated cells. […] The transcriptional activity of STAT6 is decreased by the dephosphorylation of STAT6. […] No effect of PLAG on STAT1 phosphorylation is observed.
# [3] = tested on: HepG2 cells; experiment: WST-1 cell viability assay in HepG2 cells; type: cell-based; settings: PLAG 1 to 100 μg/ml
# Experimental: The incubated HepG2 cell lines are treated with PLAG (1˜100 μg/ml), followed by IL-4 and TNF-α, reacted for 1 hour, incubated for 18 hours at 37° C. and the supernatant isolated. Quantitation of the amount of C3 in the cellular culture medium (supernatant) from HepG2 cells is performed by ELISA using a commercially available monoclonal antibody (mAb, R&D Systems) and the manufacture's protocol; the results are presented in FIG. 3. C3 is expressed spontaneously under in vitro culture condition using 10% FCS added to HepG2 cells incubated for 12 hr. The cells are treated with different doses of PLAG from 1 to 100 μg/ml (Panel A, Panel B) or 10 and 100 μg/ml of S6I (Panel C), reacted with IL-4 and TNF-α for 1 hr and then incubated for 18 hr at 37° C. Cellular viability is confirmed using the WST-1 assay (Panel A).
# [4] = tested on: splenic nodules, primitive progenitor cells and megakaryocytes; experiment: Colony forming units in spleen (CFUs) assay in heavily irradiated mice; type: in vivo; settings: PLAG 50 mg/kg/d i.p. or p.o.
# Experimental: In order to determine the in vivo effect of PLAG on the recovery of hematopoiesis, a CFUs assay is performed in heavily irradiated mice.
# [5] = tested on: hematopoietic stem cells and megakaryocytes; settings: reported in WO 99/26640; cited from earlier work
# [6] = molecular target: T1, STAT6; experiment: Reporter (luciferase) assay for STAT6 transcriptional activity in HepG2 cells; type: cell-based; design: endogenous in cells; host or cells: HepG2 (gene transfected); settings: gene transfected HepG2, 10 ng IL-4, PLAG 0.01-10 μg/ml, 12 hours incubation
# Experimental: By using STAT6 inhibitor (S6I), it is confirmed that the reduction of Complement 3 in HepG2 cells (human hepatocyte cell line) is regulated by STAT6. […] It is also confirmed that PLAG has selective efficacy on STAT6 over STAT1. FIG. 1 presents graphs showing STAT1 and STAT6 transcriptional activity in the PLAG treated HepG2 cells. NC refers to the unstimulated control cell. For the STAT1 assay, gene transfected HepG2 (human hepatocyte cell line) is treated with 10 ng of IFN-γ and serially diluted PLAG is added (0.01 μg/ml, 0.1 μg/ml, 1 μg/ml, and 10 μg/ml as shown) to see its effect on gene expression in the stimulated cell. For the STAT6 assay, gene transfected HepG2 cells are treated with 10 ng of IL-4 and again serially diluted PLAG is added (0.01 μg/ml, 0.1 μg/ml, 1 μg/ml, and 10 μg/ml as shown) to see its effect on gene expression in the stimulated cell. The assay is carried out following 12 hours incubation of treated cells.
structure (smiles),measurement,setting,value
"CCCCC/C=C\C/C=C\CCCCCCCC(=O)OC(COC(C)=O)COC(=O)CCCCCCCCCCCCCCC (racemic) [PLAG, 1-palmitoyl-2-linoleoyl-3-acetylglycerol]",protection from cyclophosphamide-induced neutropenia,[1],substantially complete protection
same,IL-4 treatment induced STAT6 phosphorylation,[2],inhibited with increasing PLAG concentrations
same,cellular viability (WST-1),[3],does not affect the cellular propagation and death
same,number of splenic nodules and numbers of primitive progenitor cells and megakaryocytes,[4],marked increase
same,growth-stimulating activities of hematopoietic stem cells and megakaryocytes,[5],growth-stimulating activities
same,"STAT6 expression (transcriptional activity, reporter)",[6],"significant, dose-dependent effect"
